Reference: patent publication US4496591A, “Insecticidal bis-carbamate sulfides” (priority 1981, dated 1985)

Tests used:
Type in all cases: in vivo
[1] = test system: flax; assay: Phytotoxicity, flax; design: key: 0: the compounds had no visible effects on that plant species; settings: scale 0 to 10, eight pounds per acre, approximately two weeks
Protocol: (§1) Several species of the novel compounds were tested for their phytotoxic effects. Two flats of each species of plants to be tested were planted 8-14 days before testing and grown at greenhouse conditions. One flat was sprayed with the chemical to be tested at the rate of eight pounds per acre while the other control flat was sprayed with solvent only. The results of such testing were recorded approximately two weeks after treatment and are reproduced in Table III below.
(§2) Numerical ratings from "0" to "10" are used to designate the degree of activity.

[2] = test system: Marigold; assay: Phytotoxicity, marigold; design: key: 0: the compounds had no visible effects on that plant species; settings: scale 0 to 10, eight pounds per acre, approximately two weeks
Protocol: as §1, §2

[3] = test system: Snapbean; assay: Phytotoxicity, snapbean; design: key: 0: the compounds had no visible effects on that plant species; settings: scale 0 to 10, eight pounds per acre, approximately two weeks
Protocol: as §1, §2

[4] = test system: Cucumber; assay: Phytotoxicity, cucumber; design: key: 0: the compounds had no visible effects on that plant species; settings: scale 0 to 10, eight pounds per acre, approximately two weeks
Protocol: as §1, §2

[5] = test system: Sorghum; assay: Phytotoxicity, sorghum; design: key: 0: the compounds had no visible effects on that plant species; settings: scale 0 to 10, eight pounds per acre, approximately two weeks
Protocol: as §1, §2

[6] = test system: bean aphid (Aphis fabae Scop.); assay: Bean aphid foliage spray test; design: key: A: excellent control; B: partial control; C: no control at 500 ppm; settings: 500 parts per million, 24 hour
Protocol: (§3) Suspensions of the test compounds were prepared by dissolving one gram of compound in 50 milliliters of acetone in which had been dissolved 0.1 gram (10 percent of the weight of compound) of an alkylphenoxy polyethoxyethanol surfactant, as an emulsifying or dispersing agent. The resulting solution was mixed into 150 milliliters of water to give roughly 200 milliliters of a suspension containing the compound in finely divided form. The thus-prepared stock suspension contained 0.5 percent by weight of compound. The concentrations in parts per million by weight employed in the tests described hereinbelow were obtained by appropriate dilutions of the stock suspension with water. The test procedures were as follows:
Adults and nymphal stages of the bean aphid (Aphis fabae Scop.) reared on potted dwarf nasturtium plants at 68°-70° F. and 50±5 percent relative humidity, constituted the test insects. For testing purposes, the number of aphids per pot were standardized to 100-150 by trimming plants containing excess aphids.
The test compounds were formulated by diluting the stock suspension with water to give a suspension containing 500 parts of test compound per million parts of final formulation.
The potted plants (one pot per compound tested) infested with 100-150 aphids, were placed on a revolving turntable and sprayed with 100-110 milliliters of test compound formulation by use of a DeVilbiss spray gun set at 40 psig. air pressure. This application, which lasted 25 seconds, was sufficient to wet the plants to run-off. As a control, 100-110 milliliters of a water-acetone-emulsifier solution containing no test compound was also sprayed on infested plants. After spraying, the pots were placed on their sides on a sheet of white standard mimeograph paper which had been previously ruled to facilitate counting. Temperature and humidity in the test room during the 24 hour holding period were 68°-70° F. and 50±5 percent, respectively. Aphids which fell onto the paper and were unable to remain standing after being uprighted were considered dead. Aphids remaining on the plants were observed closely for movement and those which were unable to move the length of the body upon stimulation by prodding were considered dead.
(§4) In these tests the pesticidal activity of the compounds at the indicated dosage rate against aphid, Southern Armyworm, Bean Beetle and housefly was rated as follows: […]

[7] = test system: house flies (Musca domestica, L.); assay: Fly bait test; design: key: A: excellent control; B: partial control; C: no control at 500 ppm; settings: 500 parts per million, sugar bait, twenty-four hours
Protocol: as §3
Four to six day old adult house flies (Musca domestica, L.), reared according to the specifications of the Chemical Specialties Manufacturing Association (Blue Book, McNair-Dorland Co., N.Y. 1954; pages 243-244, 261) under controlled conditions of 80±5° F. and 50±5 percent relative humidity, were the test insects. The flies were immobilized by anesthetizing them with carbon dioxide. Twenty-five immobilized individuals, males and females, were transferred to a cage consisting of a standard food strainer about five inches in diameter which was inverted over a wrapping-paper-covered surface. The test compounds were formulated by diluting the stock suspension with a 10 percent (by weight) sugar solution to give a suspension containing 500 parts of test compound per million parts of final formulation, by weight. Ten milliliters of the test formulation were added to a souffle cup containing a one-inch square of an absorbent cotton pad. This bait cup was introduced and centered on the blotting paper under the food strainer prior to admitting the anesthetized flies. The caged flies were allowed to feed on the bait for twenty-four hours, at a temperature of 80±5° F. and at a relative humidity of 50±5 percent.
as §4

[8] = test system: Mexican bean beetle (Epilachna varivestis, Muls.) larvae; assay: Mexican bean beetle leaf spray test; design: key: A: excellent control; B: partial control; C: no control at 500 ppm; settings: 500 parts per million, fourth instar larvae, three days
Protocol: as §3
Fourth instar larvae of the Mexican bean beetle (Epilachna varivestis, Muls.), reared on Tendergreen bean plants at a temperature of 80±5° F. and 50±5° F. percent relative humdity, were the test insects.
The test compounds were formulated by diluting the stock suspension with water to give a suspension containing 500 parts of test compound per million parts of final formulation. Tendergreen bean plants of standard height and age were placed on a revolving turntable and sprayed with 100-110 milliliters of test compound formulation by use of a DeVilbiss spray gun set at 40 psig air pressure. This application, which lasted 25 seconds, was sufficient to wet the plants to run-off. As a control, 100-110 milliliters of a water-acetone-emulsifier solution containing no test compound was also sprayed on infested plants. When dry, the paired leaves were separated and each was placed in a 9 centimeter Petri dish lined with moistened filter paper. Five randomly selected larvae were introduced into each dish, and the dishes were closed. The closed dishes were labeled and held at a temperature of 80±5° F., for three days. Although the larvae could easily consume the leaf within 24 to 48 hours, no more food was added. Larvae which were unable to move the length of the body, even upon stimulation, were considered dead.
as §4

[9] = test system: root-knot nematode, Meloidogyne incognita var. acrita; assay: Nematocide test; design: key: 1: severe galling, equal to untreated plants; 2: moderate galling; 3: light galling; 4: very light galling; 5: no galling, perfect control; settings: 3.33 m.g. per jar, cucumber, approximately 3 weeks
Protocol: The test organism used was the infective migratory larvae of the root-knot nematode, Meloidogyne incognita var. acrita, reared in the greenhouse on roots of cucumber plants. Infected plants were removed from the culture, and the roots were chopped very finely. A small amount of this inoculum was added to a pint jar containing approximately 180 cc. of soil. The jars were capped and incubated for one week at room temperature. During this period eggs of the nematode were hatched, and the larval forms migrated into the soil.
Ten ml. of the test formulation were added to each of the two jars for each dosage tested. Following the addition of chemical, the jars were capped, and the contents thoroughly mixed on a ball mill for […].
The test compounds were formulated by a standard procedure of solution in acetone addition of an emulsifier, and dilution with water. Primary screening tests were conducted at 3.33 m.g. of the test compound per jar.
The jars were left capped at room temperature for a period of 48 hours, and the contents then transferred to 3 inch pots. Subsequently, the pots were seeded to cucumber as an indicator crop and placed in the greenhouse where they were cared for in the normal fashion for approximately 3 weeks.
The cucumber plants were then taken from the pots, the soil removed from the roots, and the amount of galling visually rated.
In the test for activity against nematodes activity was rated as follows: […]

[10] = test system: southern armyworm (Spodoptera eridania, (Cram.)) larvae; assay: Southern armyworm leaf spray bait test; design: key: A: excellent control; B: partial control; C: no control at 500 ppm; settings: 500 parts per million, three days
Protocol: as §3
Larvae of the southern armyworm (Spodoptera eridania, (Cram.)), reared on Tendergreen bean plants at a temperature of 80±5° F. and a reative humidity of 50±5 percent, constituted the test insects.
The test compounds were formulated by diluting the stock suspension with water to give a suspension containing 500 parts of test compound per million parts of final formulation. Potted Tendergreen bean plants of standard height and age were placed on a revolving turntable and sprayed with 100-110 milliliters of test compound formulation by use of a DeVilbiss spray gun set at 40 psig air pressure. This application, which lasted 25 seconds, was sufficient to wet the plants to run-off. As a control, 100-110 milliliters of a water-acetone-emulsifier solution containing no test compound were also sprayed on infested plants. When dry, the paired leaves were separated and each one was placed in a 9 centimeter Petri dish lines with moistened filter paper. Five randomly selected larvae were introduced into each dish and the dishes were closed. The closed dishes were labeled and held at 80°-85° F. for three days. Although the larvae could easily consume the whole leaf within twenty-four hours, no more food was added. Larvae which were unable to move the length of the body, even upon stimulation by prodding, were considered dead.
as §4

[11] = test system: egg of the Southern armyworm (Spodoptera eridania (Cram.)); assay: Southern armyworm ovicide test; design: key: A: excellent control; B: partial control; C: no control at 500 ppm; settings: 500 parts per million, egg dip, four days
Protocol: as §3
The test organism was the egg of the Southern armyworm (Spodoptera eridania (Cram.)) as obtained from adults reared on Tendergreen bean plants at a temperature of 80±5° F. and a relative humidity of 50±5 percent. The eggs were laid on freezer paper (Marlon 717, Copco paper) and then cut into small sections containing one or two egg masses.
The test compounds were formulated by diluting the stock suspension with water to give a suspension containing 500 parts of test compound per million parts of final formulation. The egg masses were then dipped until they were thoroughly wet (5-10 seconds). They were then placed on a paper towel face up and were allowed to dry for 15-30 minutes. The dry eggs were placed in a 15×60 mm petri dish containing a cotton dental wick saturated with a 5 percent sodium chloride solution to maintain a high level of humidity. The closed dishes were labeled and held at a temperature of 80±5° F. for four days. Larvae that emerged from the egg, even if dead at the time of observation, were recorded as hatched.
as §4

CSC(C)=NOC(=O)N(C)SN(C)C(=O)Oc1cccc(C(C)=O)c1 [drawing 26]
0: Phytotoxicity rating, flax [1] | Phytotoxicity rating, Marigold [2] | Phytotoxicity rating, Snapbean [3] | Phytotoxicity rating, Cucumber [4] | Phytotoxicity rating, Sorghum [5]

CSC(C)=NOC(=O)N(C)SN(C)C(=O)Oc1cc(C)c(C)cc1C(C)=O [Compound 9]
A: Aphids, pesticidal activity rating [6] | Housefly, pesticidal activity rating [7] | Mexican Bean Beetle, pesticidal activity rating [8] | Southern Armyworm, pesticidal activity rating [10] | Southern Armyworm (egg), pesticidal activity rating [11]
1: Root-Knot Nematode, galling rating [9]

COc1ccc(C(=O)c2ccccc2)c(OC(=O)N(C)SN(C)C(=O)ON=C(C)SC)c1 [Compound 10]
5: Root-Knot Nematode, galling rating [9]
A: Aphids, pesticidal activity rating [6] | Housefly, pesticidal activity rating [7] | Mexican Bean Beetle, pesticidal activity rating [8] | Southern Armyworm, pesticidal activity rating [10] | Southern Armyworm (egg), pesticidal activity rating [11]

CSC(C)=NOC(=O)N(C)SN(C)C(=O)Oc1ccccc1C=O [drawing 25]
0: Phytotoxicity rating, flax [1] | Phytotoxicity rating, Marigold [2] | Phytotoxicity rating, Snapbean [3] | Phytotoxicity rating, Cucumber [4] | Phytotoxicity rating, Sorghum [5]

CSC(C)=NOC(=O)N(C)SN(C)C(=O)Oc1ccc(C(C)=O)cc1 [Compound 2]
A: Aphids, pesticidal activity rating [6] | Housefly, pesticidal activity rating [7] | Mexican Bean Beetle, pesticidal activity rating [8] | Southern Armyworm, pesticidal activity rating [10] | Southern Armyworm (egg), pesticidal activity rating [11]
5: Root-Knot Nematode, galling rating [9]

CSC(C)=NOC(=O)N(C)SN(C)C(=O)Oc1cccc(C(C)=O)c1 [Compound 1, S-Methyl-N-[[[N'-[[N"-[(3-acetylphenoxy)carbonyl]-N"-methylaminosulfenyl]]-N'-methylcarbamoyloxy]]]thioacetimidate]
A: Aphids, pesticidal activity rating [6] | Housefly, pesticidal activity rating [7] | Mexican Bean Beetle, pesticidal activity rating [8] | Southern Armyworm, pesticidal activity rating [10] | Southern Armyworm (egg), pesticidal activity rating [11]
5: Root-Knot Nematode, galling rating [9]

COc1cc(C=O)ccc1OC(=O)N(C)SN(C)C(=O)ON=C(C)SC [Compound 5]
A: Aphids, pesticidal activity rating [6] | Housefly, pesticidal activity rating [7] | Mexican Bean Beetle, pesticidal activity rating [8] | Southern Armyworm, pesticidal activity rating [10]
B: Southern Armyworm (egg), pesticidal activity rating [11]
2: Root-Knot Nematode, galling rating [9]

CSC(C)=NOC(=O)N(C)SN(C)C(=O)Oc1ccccc1C(C)=O
0: Phytotoxicity rating, flax [1] | Phytotoxicity rating, Marigold [2] | Phytotoxicity rating, Snapbean [3] | Phytotoxicity rating, Cucumber [4] | Phytotoxicity rating, Sorghum [5]
